Results from patent US6551774B1, “Diagnostic methods for conditions associated with elevated cellular levels of telomerase activity” (Board of Regents, The University of Texas System, priority 1992, dated 2003).

Tests used:
Tetrahymena cells [1] = assay: Telomere length in vegetatively grown Tetrahymena by Southern blot; type: cell-based, Tetrahymena thermophila
[2] = tested on: lymphoma cell line JY 616; assay: Growth of cultured JY lymphoma cells with potential telomerase inhibitors; type: cell-based, human; details: 50 μM; normal rate until week 3
Description: (§1) The effect of the agents on telomerase activity in intact cells was then studied utilizing the lymphoma cell line JY 616 which were maintained in RPMI 1640 with […] Hepes, 10% FCS, and penicillin/streptomycin (Gibco). The cells were cultured in 6-well plates (Falcon) with 5.0 ML of medium per well in duplicate. Cells were passaged every 7-10 days which corresponded to 5-7 mean population doublings (MPD), and seeded at 3×10^4 cells per well into fresh medium containing analog or control. Cell viability was monitored prior to harvest utilizing trypan blue stain (Gibco) during counting with a hemocytometer. The average ratio of stained: unstained cells (dead:alive) was […]. The intactness of the DNA was measured on a parallel gel by observing its mobility in a gel prior to digestion by a restriction enzyme.

[3] = tested on: lymphoma cell line JY 616; assay: Telomere length of JY lymphoma cells by Southern blot; type: cell-based, human; details: AZT treated cells, week 3
Description: The first lane is DNA from the cells at the start of the experiment, the second is the RPMI control, and the third is cells treated with AZT for the times indicated.
Cells were treated over a 10 week period with either 10 μM ddG in 0.01% DMSO or medium with 0.01% DMSO only.
as §1

Tetrahymena cells [4] = assay: Progeny formation (cycloheximide resistance) of Tetrahymena conjugated in the presence of analog; type: cell-based, Tetrahymena thermophila; details: for # CHX-R: number of cycloheximide-resistant wells

Cc1cn([C@H]2C[C@H](N=[N+]=[N-])[C@@H](CO)O2)c(=O)[nH]c1=O [AZT]
fraction of the maximal telomere shortening effect (Tetrahymena cells [1]; 10 μM, the lowest concentration tested): at least 50% | shortening of telomeres compared with control cultures (Tetrahymena cells [1]; 1 and 5 mM in 2% PPYS medium): ≤ 170 base pairs | cell growth [2]: ceased proliferating | mean telomere length compared to the control medium [3]: marked decrease in mean telomere length | % CHX-R (Tetrahymena cells [4]; 0.01 mM analog (head prints MM), first block for the analog): 72% | % CHX-R (Tetrahymena cells [4]; 0.01 mM analog (head prints MM), second block for the analog): 73% | # CHX-R (Tetrahymena cells [4]; 0.01 mM analog, first block for the analog): 121 | # CHX-R (Tetrahymena cells [4]; 0.01 mM analog, second block for the analog): 67 | % CHX-R (Tetrahymena cells [4]; 0.1 mM analog (head prints MM), first block for the analog): 68% | % CHX-R (Tetrahymena cells [4]; 0.1 mM analog (head prints MM), second block for the analog): 67% | # CHX-R (Tetrahymena cells [4]; 0.1 mM analog, first block for the analog): 100 | # CHX-R (Tetrahymena cells [4]; 0.1 mM analog, second block for the analog): 128 | % CHX-R (Tetrahymena cells [4]; 1.0 mM analog (head prints MM), first block for the analog): 55% | % CHX-R (Tetrahymena cells [4]; 1.0 mM analog (head prints MM), second block for the analog): 48% | # CHX-R (Tetrahymena cells [4]; 1.0 mM analog, first block for the analog): 91 | # CHX-R (Tetrahymena cells [4]; 1.0 mM analog, second block for the analog): 60 | % CHX-R (Tetrahymena cells [4]; 5.0 mM analog (head prints MM), first block for the analog): 63% | % CHX-R (Tetrahymena cells [4]; 5.0 mM analog (head prints MM), second block for the analog): 53% | # CHX-R (Tetrahymena cells [4]; 5.0 mM analog, first block for the analog): 75 | # CHX-R (Tetrahymena cells [4]; 5.0 mM analog, second block for the analog): 89 | irreversible disruption of macronuclear development (Tetrahymena cells [4]; analog present during conjugation): little or no irreversible disruption
